Tests used:
Assay type in all cases: in vivo
Conditions in all cases: foliar, compared to untreated control leaf disks, read-out: disease control
[1] = tested on: Puccinia recondita f. sp. tritici; test: Puccinia recondita f. sp. tritici / wheat / leaf disc curative (brown rust)
Method: Puccinia recondita f. sp. tritici/Wheat/Leaf Disc Curative (Brown Rust) Wheat leaf segments cv. Kanzler are placed on agar in multiwell plates (24-well format). The leaf segments are inoculated with a spore suspension of the fungus. Plates were stored in darkness at 19° C. and 75% rh. The formulated test compound diluted in water was applied 1 day after inoculation.

[2] = tested on: Blumeria graminis f. sp. tritici (Erysiphe graminis f. sp. tritici); test: Blumeria graminis f. sp. tritici / wheat / leaf disc preventative (powdery mildew on wheat)
Method: Blumeria graminis f. sp. tritici (Erysiphe graminis f. sp. tritici)/Wheat/Leaf Disc Preventative (Powdery Mildew on Wheat)
Wheat leaf segments cv. Kanzler were placed on agar in a multiwell plate (24-well format) and sprayed with the formulated test compound diluted in water. The leaf disks were inoculated by shaking powdery mildew infected plants above the test plates 1 day after application. The inoculated leaf disks were incubated at 20° C. and 60% rh under a light regime of 24 h darkness followed by 12 h light/12 h darkness in a climate chamber and the activity of a compound was assessed as percent disease control compared to untreated when an appropriate level of disease damage appears on untreated check leaf segments (6-8 days after application).
The following compounds gave at 200 ppm give at least 50% disease control in this test when compared to untreated control leaf disks under the same conditions, which show extensive disease development: […]

Pyrenophora teres = Pyrenophora teres / barley / leaf disc preventative (net blotch)
Excerpt: Pyrenophora teres/Barley/Leaf Disc Preventative (Net Blotch) Barley leaf segments cv. Hasso were placed on agar in a multiwell plate (24-well format) and sprayed with the formulated test compound diluted in water. The leaf segments were inoculated with a spore suspension of the fungus 2 days after application.

[3] = tested on: Puccinia recondita f. sp. tritici; test: Puccinia recondita f. sp. tritici / wheat / leaf disc preventative (brown rust)
Excerpt: Puccinia recondita f. sp. tritici/Wheat/Leaf Disc Preventative (Brown Rust) Wheat leaf segments cv. Kanzler were placed on agar in multiwell plates (24-well format) and sprayed with the formulated test compound diluted in water. The leaf disks were inoculated with a spore suspension of the fungus 1 day after application.

Measured: pest or weed control at 200 ppm

C=C(C)CCCOc1nc(C)c(/N=C/N(C)CC)cc1Br [Q.120]
≥ 50%: all assays above

CCN(C)/C=N/c1cc(Br)c(OC(C)c2cc(C)no2)nc1C (centres unmarked) [Q.074]
≥ 50%: all assays above

CCN(C)/C=N/c1cc(Br)c(OC(C)Cc2ccccc2)nc1C (centres unmarked) [Q.198]
≥ 50%: all assays above

CCN(C)/C=N/c1cc(Br)c(OCc2ccsc2)nc1C [Q.208]
≥ 50%: all assays above

CCCCOc1nc(C)c(/N=C/N(C)CC)cc1Br [Q.390]
≥ 50%: all assays above

CCN(C)/C=N/c1cc(Br)c(OC2CCc3ccc(C(C)O)cc3C2)nc1C (centres unmarked) [Q.044]
≥ 50%: all assays above

CCN(C)/C=N/c1cc(Br)c(OC(C)c2cccs2)nc1C (centres unmarked) [Q.237]
≥ 50%: Pyrenophora teres | [3]

CCN(C)/C=N/c1cc(Br)c(OC2CCOCC2)nc1C [Q.244]
≥ 50%: all assays above

Cc1ccccc1CC(C)Oc1ccc(/N=C/N(C)C(C)C)c(C)n1 (centres unmarked) [Q.355]
≥ 50%: all assays above

CCN(C)/C=N/c1cc(Br)c(OCc2cc(F)cc(F)c2)nc1C [Q.105]
≥ 50%: all assays above

CCN(C)/C=N/c1cc(Br)c(OCCCc2ccccc2)nc1C [Q.100]
≥ 50%: all assays above

CCN(C)/C=N/c1cc(Br)c(OC2CCC(C)=C(C)CC2)nc1C [Q.231]
≥ 50%: all assays above

CCN(C)/C=N/c1cc(Br)c(OC2Cc3cc(Br)c(OC)cc3C2)nc1C (centres unmarked) [Q.202]
≥ 50%: [2] | Pyrenophora teres | [3]

COc1cc(COc2ccc(/N=C/N(C)C(C)C)c(C)n2)cc(OC)c1 [Q.377]
≥ 50%: [1] | Pyrenophora teres | [3]

CCN(C)/C=N/c1cc(Br)c(OCc2cccc(C#Cc3ccccc3)c2)nc1C [Q.311]
≥ 50%: [1] | Pyrenophora teres | [3]

CCN(C)/C=N/c1cc(Br)c(OCc2snc(-c3ccc(F)cc3)c2Br)nc1C [Q.125]
≥ 50%: [2] | Pyrenophora teres | [3]

C#Cc1cc(/N=C/N(C)CC)c(C)nc1O[C@H]1CC[C@H](C(C)C)CC1 [Q.253]
≥ 50%: [1] | Pyrenophora teres | [3]

COc1ccccc1COc1ccc(/N=C/N(C)C(C)C)c(C)n1 [Q.366]
≥ 50%: [1] | Pyrenophora teres | [3]

CCN(C)/C=N/c1cc(Br)c(OC2CCNCC2)nc1C [Q.053]
≥ 50%: [2] | Pyrenophora teres

CCN(C)/C=N/c1cc(Br)c(OCCCC=C(C)C)nc1C [Q.079]
≥ 50%: Pyrenophora teres

C=C(C)CC(CC(=C)C)Oc1nc(C)c(/N=C/N(C)CC)cc1Br [Q.232]
≥ 50%: [1] | Pyrenophora teres | [3]

CCc1cc(/N=C/N(C)CC)c(C)nc1O[C@H]1CC[C@H](C(C)C)CC1 [Q.252]
≥ 50%: Pyrenophora teres | [3]

CCN(C)/C=N/c1cc(Br)c(OC(C)c2ccsc2)nc1C (centres unmarked) [Q.245]
≥ 50%: [2] | Pyrenophora teres | [3]

CCN(C)/C=N/c1cc(Br)c(OCc2cccc(C(C)C)c2)nc1C [Q.169]
≥ 50%: [1] | Pyrenophora teres | [3]

CCN(C)/C=N/c1cc(Br)c(OCc2cccc(N(C)C)c2)nc1C [Q.177]
≥ 50%: [1] | [2] | [3]

CCN(C)/C=N/c1ccc(OC(C)c2cc(OC)cc(OC)c2)nc1C (centres unmarked) [Q.373]
≥ 50%: [1] | [2] | [3]

CCCOc1nc(C)c(/N=C/N(C)CC)cc1Br [Q.388]
≥ 50%: [1] | [2] | [3]

CCN(C)/C=N/c1cc(Br)c(OCc2ccc3cccnc3c2)nc1C [Q.351]
≥ 50%: [1] | [2] | [3]

CCN(C)/C=N/c1cc(Br)c(OCc2ccc3c(c2)CCCC3)nc1C [Q.319]
≥ 50%: [1] | [2] | [3]

CCN(C)/C=N/c1cc(I)c(O[C@H]2CC[C@H](C(C)C)CC2)nc1C [Q.179]
≥ 50%: [1] | [2] | [3]

CCN(C)/C=N/c1ccc(OC(C)c2cc(F)cc(F)c2)nc1C (centres unmarked) [Q.181]
≥ 50%: [1] | [2] | [3]

C/C=C/CCCCOc1nc(C)c(/N=C/N(C)CC)cc1Br [Q.132]
≥ 50%: [1] | [2] | [3]

C=CCN(C)/C=N/c1cc(Br)c(OC(C)c2cc(F)cc(F)c2)nc1C (centres unmarked) [Q.192]
≥ 50%: [1] | [2] | [3]

CCCN/C=N/c1cc(Br)c(OCCCC(C)C)nc1C [Q.010]
≥ 50%: [1] | [2] | [3]

Cc1cc(C)cc(COc2ccc(/N=C/N(C)C(C)C)c(C)n2)c1 [Q.297]
≥ 50%: [1] | [2] | [3]

CCN(C)/C=N/c1cc(Br)c(OCc2ccccc2-c2ccccc2)nc1C [Q.294]
≥ 50%: [1] | [2] | [3]

CCN(C)/C=N/c1cc(Br)c(OCc2cc(-c3ccccc3)no2)nc1C [Q.073]
≥ 50%: [1] | [2] | [3]

CCN(C)/C=N/c1cc(Br)c(OC2CCc3ccc(Br)cc3C2)nc1C (centres unmarked) [Q.067]
≥ 50%: Pyrenophora teres

C#CCOc1nc(C)c(/N=C/N(C)CC)cc1Br [Q.078]
≥ 50%: [1] | [2] | [3]

CCN(C)/C=N/c1cc(-c2ccsc2)c(OC(C)c2cc(F)cc(F)c2)nc1C (centres unmarked) [Q.265]
≥ 50%: [1] | [2] | [3]

CCN(C)/C=N/c1cc(Br)c(OC2Cc3cc(Br)c(Br)cc3C2)nc1C [Q.030]
≥ 50%: [1] | [2] | [3]

CCN(C)/C=N/c1ccc(OCc2ccccc2OC)nc1C [Q.367]
≥ 50%: [1] | [2] | [3]

CCN(C)/C=N/c1cc(Br)c(OCCCC(CCl)OC=O)nc1C (centres unmarked) [Q.060]
≥ 50%: [1] | [2] | [3]

CCN(C)/C=N/c1cc(Br)c(OCC[Si](C)(C)C)nc1C [Q.271]
≥ 50%: [1] | [2] | [3]

CCN(C)/C=N/c1cc(Br)c(O[C@@H]2C[C@@H]3ON=C(C)[C@@H]3C2)nc1C [Q.068]
≥ 50%: [1] | [2] | [3]

CCN(C)/C=N/c1cc(Br)c(OC(C)c2cc(F)cc(F)c2)nc1C (centres unmarked) [Q.256]
≥ 50%: Pyrenophora teres

CCN(C)/C=N/c1cc(Br)c(OCc2cc(-c3ccc(F)cc3)ns2)nc1C [Q.123]
≥ 50%: [1] | [2] | [3]

CCN(C)/C=N/c1cc(Br)c(OC2CCc3ccc(Br)cc3C2)nc1C (centres unmarked) [Q.127]
≥ 50%: [1] | [2] | [3]
